Measurements reported in ChEMBL document CHEMBL1641417, “Cytotoxicity and topoisomerase I/II inhibition of glycosylated 2-phenyl-indoles, 2-phenyl-benzo[b]thiophenes and 2-phenyl-benzo[b]furans” (Bioorg Med Chem, 2011).

Tests used:
[1] = test system: MCF7; assay: Cytotoxicity against human MCF7 cells assessed as cell viability at 100 uM after 72 hrs by MTS assay; conditions: MCF7, 72 h
[2] = test system: HT-29; assay: Cytotoxicity against human HT-29 cells assessed as cell viability at 100 uM after 72 hrs by MTS assay; conditions: HT-29, 72 h
[3] = test system: HepG2; assay: Cytotoxicity against human HepG2 cells assessed as cell viability at 100 uM after 72 hrs by MTS assay; conditions: HepG2, 72 h
[4] = test system: HT-29; assay: Cytotoxicity against human HT-29 cells assessed as cell viability at 25 uM after 72 hrs by MTS assay; conditions: HT-29, 72 h
[5] = test system: HepG2; assay: Cytotoxicity against human HepG2 cells assessed as cell viability at 25 uM after 24 hrs by MTS assay; type: functional; conditions: HepG2, 24 h, read-out: Activity
[6] = test system: MCF7; assay: Cytotoxicity against human MCF7 cells assessed as cell viability at 25 uM after 72 hrs by MTS assay; conditions: MCF7, 72 h
[7] = test system: MCF7; assay: Cytotoxicity against human MCF7 cells at 25 uM after 72 hrs by MTS assay
[8] = test system: HepG2; assay: Cytotoxicity against human HepG2 cells at 25 uM after 72 hrs by MTS assay
[9] = test system: HT-29; assay: Cytotoxicity against human HT-29 cells at 25 uM after 72 hrs by MTS assay

| SMILES | viability at 100 µM [1] | viability at 100 µM [2] | viability at 100 µM [3] | viability at 25 µM [4] | viability at 25 µM [5] | viability at 25 µM [6] | Activity [7] | Activity [8] | Activity [9] |
| --- | --- | --- | --- | --- | --- | --- | --- | --- | --- |
| C#CCO[C@H]1CC[C@H](N)[C@H](C)O1 | 107% | 99% | 112% |  |  |  |  |  |  |
| Cc1ccc(S(=O)(=O)n2c(-c3ccccc3)c(I)c3ccccc32)cc1 | 114% | 82% | 90% |  |  |  |  |  |  |
| c1ccc(-c2cc3ccccc3s2)cc1 | 113% | 81% | 88% |  |  |  |  |  |  |
| Ic1c(-c2ccccc2)[nH]c2ccccc12 | 103% | 91% | 91% |  |  |  |  |  |  |
| OCC#Cc1c(-c2ccccc2)sc2ccccc12 | 37% | 8% | 17% | 68% | 97% | 90% |  |  |  |
| c1ccc(-c2cc3ccccc3o2)cc1 | 107% | 80% | 88% |  |  |  |  |  |  |
| OCC#Cc1c(-c2ccccc2)oc2ccccc12 | 2% | < 1% | < 1% | 86% | 88% | 86% |  |  |  |
| Cc1ccc(S(=O)(=O)n2c(-c3ccccc3)cc3ccccc32)cc1 | 71% | 12% | 37% | 39% | 54% |  |  |  |  |
| c1ccc(-c2cc3ccccc3[nH]2)cc1 [2-PHENYL-1H-INDOLE] | 72% | 75% | 71% |  |  |  |  |  |  |
| OCC#Cc1c(-c2ccccc2)[nH]c2ccccc12 | 109% | 79% | 87% | 81% | 87% | 121% | 100% | 100% | 100% |
| Ic1c(-c2ccccc2)oc2ccccc12 | 128% | 97% | 84% |  |  |  |  |  |  |
| C#CCO[C@H]1C[C@H](N)[C@H](O)[C@H](C)O1 | 109% | 96% | 101% |  |  |  |  |  |  |
| Cc1ccc(S(=O)(=O)n2c(-c3ccccc3)c(C#CCO)c3ccccc32)cc1 | 55% | 9% | 37% | 26% | 58% | 87% | 100% | 100% | 100% |
| C#CCO[C@H]1C[C@H](N)[C@@H](O)[C@H](C)O1 | 123% | 91% | 105% |  |  |  |  |  |  |
